Paper PMC7574383 (Epigenetics, 2020)

How the values were obtained:
HepG2 cells = assay: Senescence-associated β-galactosidase assay, HepG2; format: cell-based, human; conditions: HepG2, DOXO 0.5 μM, 48 h
H9c2 cells = assay: Senescence-associated β-galactosidase assay, H9c2; format: cell-based, rat; conditions: H9c2, DOXO 0.5 μM, 48 h
Caco-2 cell monolayer = assay: Caco-2 permeability assay; format: in vitro ADME, human; conditions: Caco-2 monolayer, compounds at 100 μg/ml, after three hours of treatment

Permeability (%) (Caco-2 cell monolayer)	Structure (SMILES)	SA β-gal-positive cells induced (HepG2 cells)	SA β-gal-positive cells induced (H9c2 cells) [%]
	COc1cccc2c1C(=O)c1c(O)c3c(c(O)c1C2=O)C[C@@](O)(C(=O)CO)C[C@@H]3O[C@H]1C[C@H](N)[C@H](O)[C@H](C)O1 [DOXO, doxorubicin]	about 60%	~35
82.4	CC(C)NCC(O)COc1cccc2ccccc12 (stereo not drawn) [Propranolol]		
